Laboratory results published in ChEMBL document CHEMBL4052759, “Discovery of DS79182026: A potent orally active hepcidin production inhibitor” (Bioorg Med Chem Lett, 2017).

What was measured:
[1] = molecular target: AMP-activated protein kinase, AMPK (Homo sapiens) (UniProt P54646+O43741+P54619+Q9UGJ0+Q9Y478+Q13131+Q9UGI9); assay: Inhibition of AMPK (unknown origin) at 0.078 uM relative to control
[2] = molecular target: Serine/threonine-protein kinase Chk2 (Homo sapiens) (UniProt O96017); assay: Inhibition of CHK2 (unknown origin) at 0.078 uM relative to control
[3] = molecular target: Tyrosine-protein kinase SYK (Homo sapiens) (UniProt P43405); assay: Inhibition of SYK (unknown origin) at 0.078 uM relative to control
[4] = molecular target: Ribosomal protein S6 kinase alpha-4 (Homo sapiens) (UniProt O75676); assay: Inhibition of MSK2 (unknown origin) at 0.49 uM relative to control
[5] = molecular target: T1, Protein kinase C zeta type (Homo sapiens) (UniProt Q05513); assay: Inhibition of PKC-zeta (unknown origin) at 0.49 uM relative to control
T1 sequence (whole entry): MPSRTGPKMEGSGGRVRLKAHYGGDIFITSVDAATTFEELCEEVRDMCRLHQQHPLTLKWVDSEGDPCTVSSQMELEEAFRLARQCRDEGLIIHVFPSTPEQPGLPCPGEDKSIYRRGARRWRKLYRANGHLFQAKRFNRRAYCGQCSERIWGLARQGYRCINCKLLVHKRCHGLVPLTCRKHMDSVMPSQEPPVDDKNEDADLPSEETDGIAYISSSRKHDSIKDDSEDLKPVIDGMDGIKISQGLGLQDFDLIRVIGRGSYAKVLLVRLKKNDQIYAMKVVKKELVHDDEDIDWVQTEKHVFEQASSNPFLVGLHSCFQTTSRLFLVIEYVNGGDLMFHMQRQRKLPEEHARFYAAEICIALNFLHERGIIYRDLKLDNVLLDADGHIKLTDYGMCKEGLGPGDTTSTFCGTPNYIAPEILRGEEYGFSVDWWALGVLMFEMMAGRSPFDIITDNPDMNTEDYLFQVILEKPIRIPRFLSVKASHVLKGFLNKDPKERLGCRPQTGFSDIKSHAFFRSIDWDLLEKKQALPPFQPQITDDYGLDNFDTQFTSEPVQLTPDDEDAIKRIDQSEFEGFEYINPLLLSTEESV

[6] = molecular target: AMPK alpha2/beta1/gamma1 (Homo sapiens) (UniProt P54646+P54619+Q9Y478); assay: Inhibition of AMPK-alpha2/beta1/gamma1 (unknown origin) at 0.49 uM relative to control; format: protein-complex assay
[7] = molecular target: Mitogen-activated protein kinase 3 (Homo sapiens) (UniProt P27361); assay: Inhibition of Erk1 (unknown origin) at 0.49 uM relative to control
[8] = molecular target: Tyrosine-protein kinase Fes/Fps (Homo sapiens) (UniProt P07332); assay: Inhibition of FES (unknown origin) at 0.49 uM relative to control
[9] = test system: Fibroblast growth factor receptor 3 (Homo sapiens), P22607 [K650E]; assay: Inhibition of FGFR3 K650E mutant (unknown origin) at 0.49 uM relative to control
[10] = molecular target: Phosphorylase b kinase gamma catalytic chain, liver/testis isoform (Homo sapiens) (UniProt P15735); assay: Inhibition of PhKg2 (unknown origin) at 0.49 uM relative to control
[11] = molecular target: Mitogen-activated protein kinase kinase kinase kinase 4 (Homo sapiens) (UniProt O95819); assay: Inhibition of HGK (unknown origin) at 0.49 uM relative to control
[12] = molecular target: Serine/threonine-protein kinase 10 (Homo sapiens) (UniProt O94804); assay: Inhibition of LOK (unknown origin) at 0.49 uM relative to control
[13] = test system: Tyrosine-protein kinase ABL1 (Homo sapiens), P00519 [H396P]; assay: Inhibition of Abl H396P mutant (unknown origin) at 0.49 uM relative to control
[14] = test system: Tyrosine-protein kinase ABL1 (Homo sapiens), P00519 [Y253F]; assay: Inhibition of ABL1 Y253F mutant (unknown origin) at 0.49 uM relative to control
[15] = test system: Platelet-derived growth factor receptor alpha (Homo sapiens), P16234 [V561D]; assay: Inhibition of PDGFRA V561D mutant (unknown origin) at 0.49 uM relative to control
[16] = molecular target: Cyclin-dependent kinase 1/cyclin B1 (Homo sapiens) (UniProt P06493+P14635); assay: Inhibition of CDK1/Cycline B1 (unknown origin) at 0.45 uM relative to control; format: protein-complex assay
[17] = molecular target: Ephrin type-A receptor 8 (Homo sapiens) (UniProt P29322); assay: Inhibition of EPHA8 (unknown origin) at 0.45 uM relative to control
[18] = molecular target: Calcium/calmodulin-dependent protein kinase type II subunit beta (Homo sapiens) (UniProt Q13554); assay: Inhibition of CAMK2 (unknown origin) at 0.45 uM relative to control
[19] = molecular target: Homeodomain-interacting protein kinase 1 (Homo sapiens) (UniProt Q86Z02); assay: Inhibition of HIPK1 (unknown origin) at 0.45 uM relative to control
[20] = molecular target: Serine/threonine-protein kinase 4 (Homo sapiens) (UniProt Q13043); assay: Inhibition of MST1 (unknown origin) at 0.45 uM relative to control
[21] = test system: Fibroblast growth factor receptor 4 (Homo sapiens), P22455 [V550L]; assay: Inhibition of FGFR4 V550L mutant (unknown origin) at 0.45 uM relative to control
[22] = molecular target: Tyrosine-protein kinase HCK (Homo sapiens) (UniProt P08631); assay: Inhibition of Hck (unknown origin) at 0.45 uM relative to control
[23] = test system: Tyrosine-protein kinase ABL1 (Homo sapiens), P00519 [G250E]; assay: Inhibition of ABL1 G250E mutant (unknown origin) at 0.45 uM relative to control
[24] = molecular target: Tyrosine-protein kinase ABL2 (Homo sapiens) (UniProt P42684); assay: Inhibition of Arg (unknown origin) at 0.45 uM relative to control
[25] = molecular target: Tyrosine-protein kinase Tec (Homo sapiens) (UniProt P42680); assay: Inhibition of TEC (unknown origin) at 0.45 uM relative to control
[26] = molecular target: Interleukin-1 receptor-associated kinase 1 (Homo sapiens) (UniProt P51617); assay: Inhibition of IRAK1 (unknown origin) at 0.45 uM relative to control

Ribosomal protein S6 kinase alpha-4 (Homo sapiens), sequence (O75676 whole entry, looked up): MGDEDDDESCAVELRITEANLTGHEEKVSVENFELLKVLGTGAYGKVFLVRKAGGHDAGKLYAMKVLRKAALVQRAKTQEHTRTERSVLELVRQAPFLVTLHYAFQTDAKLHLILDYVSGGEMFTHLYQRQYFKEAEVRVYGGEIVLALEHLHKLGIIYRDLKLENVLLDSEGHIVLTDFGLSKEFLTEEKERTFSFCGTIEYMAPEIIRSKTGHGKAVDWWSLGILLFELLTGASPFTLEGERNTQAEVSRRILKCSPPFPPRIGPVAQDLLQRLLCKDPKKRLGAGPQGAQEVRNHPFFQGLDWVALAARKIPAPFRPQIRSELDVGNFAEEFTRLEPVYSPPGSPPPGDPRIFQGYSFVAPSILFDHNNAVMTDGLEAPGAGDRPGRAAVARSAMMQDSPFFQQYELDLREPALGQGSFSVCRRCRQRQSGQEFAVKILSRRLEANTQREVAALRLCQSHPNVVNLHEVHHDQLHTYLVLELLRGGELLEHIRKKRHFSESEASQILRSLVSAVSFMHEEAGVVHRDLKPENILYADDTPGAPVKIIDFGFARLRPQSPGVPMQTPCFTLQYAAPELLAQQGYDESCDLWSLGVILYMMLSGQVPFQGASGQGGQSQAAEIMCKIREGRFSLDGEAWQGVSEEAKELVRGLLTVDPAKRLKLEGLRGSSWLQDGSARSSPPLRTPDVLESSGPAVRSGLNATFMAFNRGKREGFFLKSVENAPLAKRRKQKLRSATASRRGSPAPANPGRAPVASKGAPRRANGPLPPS
Serine/threonine-protein kinase 4 (Homo sapiens), sequence (Q13043 whole entry): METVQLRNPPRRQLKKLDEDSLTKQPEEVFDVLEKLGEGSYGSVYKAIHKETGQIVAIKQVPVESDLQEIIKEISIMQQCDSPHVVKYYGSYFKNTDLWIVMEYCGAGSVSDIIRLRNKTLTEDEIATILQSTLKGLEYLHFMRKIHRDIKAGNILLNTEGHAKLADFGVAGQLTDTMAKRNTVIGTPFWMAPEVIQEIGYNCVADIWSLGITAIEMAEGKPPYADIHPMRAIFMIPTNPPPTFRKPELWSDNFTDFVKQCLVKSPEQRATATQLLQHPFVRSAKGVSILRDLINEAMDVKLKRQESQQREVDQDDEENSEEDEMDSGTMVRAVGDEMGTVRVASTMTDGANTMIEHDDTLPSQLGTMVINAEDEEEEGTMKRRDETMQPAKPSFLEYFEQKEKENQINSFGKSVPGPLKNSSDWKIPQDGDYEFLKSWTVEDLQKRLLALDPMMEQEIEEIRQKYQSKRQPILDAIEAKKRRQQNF
Fibroblast growth factor receptor 4 (Homo sapiens), P22455 [V550L], sequence (P22455 whole entry V550L): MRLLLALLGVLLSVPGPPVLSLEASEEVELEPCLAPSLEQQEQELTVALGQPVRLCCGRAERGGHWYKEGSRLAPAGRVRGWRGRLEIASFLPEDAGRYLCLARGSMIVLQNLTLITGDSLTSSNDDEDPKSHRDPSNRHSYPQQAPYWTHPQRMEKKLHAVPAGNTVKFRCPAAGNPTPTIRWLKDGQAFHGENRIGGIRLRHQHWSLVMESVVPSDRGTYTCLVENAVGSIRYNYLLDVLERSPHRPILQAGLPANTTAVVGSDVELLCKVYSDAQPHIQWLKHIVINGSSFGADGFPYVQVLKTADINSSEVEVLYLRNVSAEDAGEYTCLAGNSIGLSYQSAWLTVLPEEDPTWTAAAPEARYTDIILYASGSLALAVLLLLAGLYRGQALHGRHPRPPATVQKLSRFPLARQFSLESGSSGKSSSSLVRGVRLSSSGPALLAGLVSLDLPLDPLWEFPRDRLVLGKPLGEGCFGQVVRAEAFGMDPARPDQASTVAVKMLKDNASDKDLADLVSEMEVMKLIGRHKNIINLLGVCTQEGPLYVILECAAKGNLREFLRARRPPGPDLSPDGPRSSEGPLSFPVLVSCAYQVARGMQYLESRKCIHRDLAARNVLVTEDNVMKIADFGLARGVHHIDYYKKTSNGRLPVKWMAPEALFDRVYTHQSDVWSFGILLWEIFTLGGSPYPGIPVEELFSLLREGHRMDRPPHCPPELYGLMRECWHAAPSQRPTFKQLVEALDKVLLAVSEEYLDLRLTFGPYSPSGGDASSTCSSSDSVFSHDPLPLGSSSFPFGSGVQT
Mitogen-activated protein kinase kinase kinase kinase 4 (Homo sapiens), sequence (O95819 2-1239 limits assumed): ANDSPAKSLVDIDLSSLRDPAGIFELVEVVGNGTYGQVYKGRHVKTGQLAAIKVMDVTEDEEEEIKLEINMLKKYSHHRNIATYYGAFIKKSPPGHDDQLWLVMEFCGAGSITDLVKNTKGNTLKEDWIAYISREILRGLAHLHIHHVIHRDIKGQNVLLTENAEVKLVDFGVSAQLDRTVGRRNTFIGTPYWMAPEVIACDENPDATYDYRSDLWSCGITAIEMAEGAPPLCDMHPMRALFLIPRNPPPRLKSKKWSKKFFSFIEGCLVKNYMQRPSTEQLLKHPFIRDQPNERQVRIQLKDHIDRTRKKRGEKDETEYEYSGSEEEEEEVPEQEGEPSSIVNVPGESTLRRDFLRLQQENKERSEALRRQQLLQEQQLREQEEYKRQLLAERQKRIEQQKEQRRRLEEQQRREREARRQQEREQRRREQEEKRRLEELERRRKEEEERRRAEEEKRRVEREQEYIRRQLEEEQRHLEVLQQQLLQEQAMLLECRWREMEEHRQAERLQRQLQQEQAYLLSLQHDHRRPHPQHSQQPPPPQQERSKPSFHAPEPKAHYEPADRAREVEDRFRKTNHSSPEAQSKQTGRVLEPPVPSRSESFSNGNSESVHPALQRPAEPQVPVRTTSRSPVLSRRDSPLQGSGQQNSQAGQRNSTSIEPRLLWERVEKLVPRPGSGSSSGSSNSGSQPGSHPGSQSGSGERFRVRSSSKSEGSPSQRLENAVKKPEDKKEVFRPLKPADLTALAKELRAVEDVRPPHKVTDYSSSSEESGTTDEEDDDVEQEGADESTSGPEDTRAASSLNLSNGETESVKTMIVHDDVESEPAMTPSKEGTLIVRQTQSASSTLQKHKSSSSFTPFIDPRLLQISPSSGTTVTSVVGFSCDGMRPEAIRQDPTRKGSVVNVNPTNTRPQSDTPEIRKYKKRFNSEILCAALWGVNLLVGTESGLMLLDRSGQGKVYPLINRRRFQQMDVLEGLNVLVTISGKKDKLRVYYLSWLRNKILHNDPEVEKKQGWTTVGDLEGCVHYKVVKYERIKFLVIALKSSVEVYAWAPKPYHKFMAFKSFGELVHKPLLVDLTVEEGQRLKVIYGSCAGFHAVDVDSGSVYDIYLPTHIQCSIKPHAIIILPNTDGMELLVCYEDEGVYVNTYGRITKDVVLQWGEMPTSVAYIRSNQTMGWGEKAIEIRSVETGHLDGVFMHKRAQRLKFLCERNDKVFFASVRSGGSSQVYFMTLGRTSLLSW
Homeodomain-interacting protein kinase 1 (Homo sapiens), sequence (Q86Z02 whole entry, looked up): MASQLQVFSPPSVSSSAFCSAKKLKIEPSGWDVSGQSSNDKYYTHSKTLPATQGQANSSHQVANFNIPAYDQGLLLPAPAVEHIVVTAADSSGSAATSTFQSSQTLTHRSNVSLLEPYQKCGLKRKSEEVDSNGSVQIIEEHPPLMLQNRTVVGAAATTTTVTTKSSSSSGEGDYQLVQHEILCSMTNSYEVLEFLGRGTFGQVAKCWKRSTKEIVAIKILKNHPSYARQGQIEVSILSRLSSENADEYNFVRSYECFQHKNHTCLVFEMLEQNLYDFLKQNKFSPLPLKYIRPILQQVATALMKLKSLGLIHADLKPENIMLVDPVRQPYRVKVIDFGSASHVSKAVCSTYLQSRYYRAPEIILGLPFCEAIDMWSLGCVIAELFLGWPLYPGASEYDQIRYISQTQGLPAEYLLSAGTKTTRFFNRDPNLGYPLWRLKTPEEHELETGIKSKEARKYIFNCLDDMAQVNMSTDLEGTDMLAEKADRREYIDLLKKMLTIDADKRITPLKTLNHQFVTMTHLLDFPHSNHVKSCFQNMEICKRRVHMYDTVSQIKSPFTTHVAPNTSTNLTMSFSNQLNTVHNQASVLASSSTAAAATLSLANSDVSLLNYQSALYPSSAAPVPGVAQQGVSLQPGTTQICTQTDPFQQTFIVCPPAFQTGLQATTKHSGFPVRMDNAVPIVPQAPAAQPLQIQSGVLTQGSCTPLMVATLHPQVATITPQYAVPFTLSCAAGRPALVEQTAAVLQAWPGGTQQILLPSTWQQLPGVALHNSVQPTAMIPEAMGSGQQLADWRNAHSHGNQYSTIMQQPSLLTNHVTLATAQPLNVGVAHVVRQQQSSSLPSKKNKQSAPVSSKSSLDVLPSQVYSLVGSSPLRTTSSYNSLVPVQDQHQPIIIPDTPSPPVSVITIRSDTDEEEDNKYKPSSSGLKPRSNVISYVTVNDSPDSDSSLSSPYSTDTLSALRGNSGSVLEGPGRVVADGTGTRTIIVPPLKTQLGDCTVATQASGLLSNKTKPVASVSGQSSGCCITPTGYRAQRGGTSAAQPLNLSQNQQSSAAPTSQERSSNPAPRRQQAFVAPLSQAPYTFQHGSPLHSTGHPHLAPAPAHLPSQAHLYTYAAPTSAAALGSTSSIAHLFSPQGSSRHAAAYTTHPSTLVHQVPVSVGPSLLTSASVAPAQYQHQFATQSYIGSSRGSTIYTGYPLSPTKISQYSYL
Phosphorylase b kinase gamma catalytic chain, liver/testis isoform (Homo sapiens), sequence (P15735 whole entry, canonical isoform): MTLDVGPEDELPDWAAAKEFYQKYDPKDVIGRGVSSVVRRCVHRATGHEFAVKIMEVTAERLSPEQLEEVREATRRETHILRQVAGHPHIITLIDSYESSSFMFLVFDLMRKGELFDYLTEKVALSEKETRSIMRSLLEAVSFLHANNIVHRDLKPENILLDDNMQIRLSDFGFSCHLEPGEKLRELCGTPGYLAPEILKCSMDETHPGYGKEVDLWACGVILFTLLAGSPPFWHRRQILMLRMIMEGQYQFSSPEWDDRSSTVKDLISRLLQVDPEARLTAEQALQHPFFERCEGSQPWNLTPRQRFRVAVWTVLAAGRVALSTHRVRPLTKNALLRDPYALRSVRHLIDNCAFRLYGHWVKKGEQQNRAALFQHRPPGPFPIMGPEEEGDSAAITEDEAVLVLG

COC(=O)Nc1noc2cc(-c3c(-c4ccccn4)n[nH]c3C)ccc12
inhibition [1]: 2.7%
inhibition [2]: 0.7%
inhibition [3]: 0%

Cc1[nH]nc(C2CC2)c1-c1ccc2c(NC(=O)C3CC3)noc2c1
inhibition [4]: -3.7%
inhibition [5]: 5%
inhibition [6]: 3.3%
inhibition [7]: 3.7%
inhibition [8]: -5.3%
inhibition [9]: -1.7%
inhibition [10]: 0.3%
inhibition [11]: 4%
inhibition [12]: 9.7%
inhibition [13]: 36.7%
inhibition [14]: 24.3%
inhibition [15]: -0.7%

Cc1n[nH]c(C)c1-c1ccc2c(NC(=O)c3ccc(N4CCN(C)CC4)cc3)n[nH]c2c1
inhibition [16]: 1.3%
inhibition [17]: 3.7%
inhibition [18]: 19.7%
inhibition [19]: 2.7%
inhibition [20]: 33.3%
inhibition [21]: 2.7%
inhibition [22]: 30.3%
inhibition [23]: 68%
inhibition [24]: 66.3%
inhibition [25]: 7%
inhibition [26]: 4.3%
